# Data: patent US6737383B1, “Herbicidal oxadiazolidines” (priority 1999, dated 2004)
# What was measured:
# [1] = test system: blackgrass; assay: Test B pre/postemergence blackgrass; assay type: in vivo, Alopecurus myosuroides
# How it was run: (§1)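 Response is a visual 0-to-10 score relative to untreated plants, where 0 means no effect and 10 means complete control, taken twelve to sixteen days after application. Treatments went onto soil at planting and onto foliage of 1- to 4-leaf plants, using a surfactant-containing non-phytotoxic solvent.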
# [2] = test system: wheat; assay: Test B pre/postemergence wheat; assay type: in vivo, Triticum aestivum
# How it was run: as §1
# [3] = test system: corn; assay: Test B pre/postemergence corn; assay type: in vivo, Zea mays
# How it was run: as §1
# [4] = test system: bedstraw; assay: Test B pre/postemergence bedstraw; assay type: in vivo, Galium aparine
# How it was run: as §1
# [5] = test system: rape; assay: Test B pre/postemergence rape; assay type: in vivo, Brassica napus
# How it was run: as §1
# [6] = test system: pigweed; assay: Test B pre/postemergence pigweed; assay type: in vivo, Amaranthus retroflexus
# How it was run: as §1
# [7] = test system: wild oat; assay: Test B pre/postemergence wild oat; assay type: in vivo, Avena fatua
# How it was run: as §1
# [8] = test system: surinam grass; assay: Test B pre/postemergence surinam grass; assay type: in vivo, Brachiaria decumbens
# How it was run: as §1
# [9] = test system: giant foxtail; assay: Test B pre/postemergence giant foxtail; assay type: in vivo, Setaria faberii
# How it was run: as §1
# [10] = test system: velvetleaf; assay: Test B pre/postemergence velvetleaf; assay type: in vivo, Abutilon theophrasti
# How it was run: as §1
# [11] = test system: soybean; assay: Test B pre/postemergence soybean; assay type: in vivo, Glycine max
# How it was run: as §1
# [12] = test system: morningglory; assay: Test B pre/postemergence morningglory; assay type: in vivo, Ipomoea hederacea
# How it was run: as §1
# [13] = test system: bamyardgrass; assay: Test B flood test barnyardgrass; assay type: in vivo, Echinochloa crus-galli
# How it was run: (§2)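 Read-out is a visual response score from 0 (no effect) to 10 (complete control), assigned by comparison with untreated controls. Treatment was applied at the 2-leaf stage, and plants stayed in the greenhouse for twelve to sixteen days before scoring.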
# [14] = test system: cocklebur; assay: Test B pre/postemergence cocklebur; assay type: in vivo, Xanthium strumarium
# How it was run: as §1
# [15] = test system: crabgrass; assay: Test B pre/postemergence crabgrass; assay type: in vivo, Digitaria sanguinalis
# How it was run: as §1
# [16] = test system: purple nutsedge; assay: Test B pre/postemergence purple nutsedge; assay type: in vivo, Cyperus rotundus; conditions: Preemergence
# How it was run: as §1
# [17] = test system: smallflower flatsedge; assay: Test B flood test smallflower flatsedge; assay type: in vivo, Cyperus difformis
# How it was run: as §2
# [18] = test system: duck salad; assay: Test B flood test duck salad; assay type: in vivo, Heteranthera limosa
# How it was run: as §2
# [19] = test system: sugar beet; assay: Test B pre/postemergence sugar beet; assay type: in vivo, Beta vulgaris
# How it was run: as §1
# [20] = Postemergence, Rate 62 g/ha, scale of 0 to 10, 0 is no effect, 10 is complete control
# [21] = Postemergence, Rate 125 g/ha, scale 0 to 10, 0 is no effect, 10 is complete control
# [22] = Postemergence, Rate 500 g/ha, scale 0 to 10, 0 is no effect, 10 is complete control
# [23] = Preemergence, Rate 62 g/ha, scale 0 to 10 (0 no effect, 10 complete control)
# [24] = Preemergence, Rate 125 g/ha, scale 0 to 10, 0 is no effect, 10 is complete control
# [25] = Preemergence, Rate 500 g/ha, scale of 0 to 10 where 0 is no effect and 10 is complete control
# [26] = Rate 250 g/ha, Postemergence, scale of 0 to 10 where 0 is no effect and 10 is complete control
# [27] = Rate 62 g/ha, flood test species, Pre-emergence, visual evaluation after twelve to sixteen days
# [28] = Rate 125 g/ha, under heading Pre-emergence, flood test species, visual evaluation after twelve to sixteen days
# [29] = Rate 250 g/ha, Pre-emergence (flood test species), scale 0 to 10, 0 is no effect, 10 is complete control
# [30] = Rate 500 g/ha, Pre-emergence section of Table B, 0 to 10 scale (0 no effect, 10 complete control)
smiles,measurement,setting,value
C=CCCCn1c(=O)on(C(=O)N(c2ccc(Cl)cc2)C(C)C)c1=O [Compound 546],Blackgrass plant response rating,[1]; [20],0
same,Blackgrass plant response rating,[1]; [21],0
same,"Plant response rating, Blackgrass",[1]; [22],6
same,Blackgrass plant response rating,[1]; [23],0
same,Blackgrass plant response rating,[1]; [24],0
same,Blackgrass plant response rating (0 to 10 scale),"[1]; Preemergence, Rate 250 g/ha",0
same,Blackgrass plant response rating,[1]; [25],3
same,"Plant response rating, Blackgrass",[1]; [26],3
same,Wheat plant response rating,[2]; [20],0
same,Wheat plant response rating,[2]; [21],0
same,"Plant response rating, Wheat",[2]; [22],0
same,Wheat plant response rating,[2]; [23],0
same,Wheat plant response rating,[2]; [24],0
same,Wheat plant response rating (0 to 10 scale),"[2]; Preemergence, Rate 250 g/ha",0
same,Wheat plant response rating,[2]; [25],0
same,"Plant response rating, Wheat",[2]; [26],0
same,Corn plant response rating,[3]; [20],0
same,Corn plant response rating,[3]; [21],0
same,"Plant response rating, Corn",[3]; [22],0
same,Corn plant response rating,[3]; [23],0
same,Corn plant response rating,[3]; [24],0
same,Corn plant response rating (0 to 10 scale),"[3]; Preemergence, Rate 250 g/ha",0
same,Corn plant response rating,[3]; [25],0
same,"Plant response rating, Corn",[3]; [26],0
same,Bedstraw plant response rating,[4]; [20],0
same,Bedstraw plant response rating,[4]; [21],9
same,"Plant response rating, Bedstraw",[4]; [22],9
same,Bedstraw plant response rating,[4]; [23],0
same,Bedstraw plant response rating (0 to 10 scale),"[4]; Preemergence, Rate 250 g/ha",8
same,"Plant response rating, Bedstraw",[4]; [26],9
same,Rape plant response rating,[5]; [20],0
same,Rape plant response rating,[5]; [21],0
same,"Plant response rating, Rape",[5]; [22],7
same,Rape plant response rating,[5]; [23],0
same,Rape plant response rating,[5]; [24],0
same,Rape plant response rating (0 to 10 scale),"[5]; Preemergence, Rate 250 g/ha",0
same,Rape plant response rating,[5]; [25],0
same,"Plant response rating, Rape",[5]; [26],7
same,Redroot pigweed plant response rating,[6]; [20],0
same,"Plant response rating, Redroot pigweed",[6]; [22],3
same,Redroot pigweed plant response rating,[6]; [24],3
same,Redroot pigweed plant response rating (0 to 10 scale),"[6]; Preemergence, Rate 250 g/ha",10
same,"Plant response rating, Redroot pigweed",[6]; [26],0
same,Wild oats plant response rating,[7]; [20],0
same,Wild oats plant response rating,[7]; [21],0
same,"Plant response rating, Wild oats",[7]; [22],2
same,Wild oats plant response rating,[7]; [23],0
same,Wild oats plant response rating,[7]; [24],0
same,Wild oats plant response rating (0 to 10 scale),"[7]; Preemergence, Rate 250 g/ha",0
same,Wild oats plant response rating,[7]; [25],3
same,"Plant response rating, Wild oats",[7]; [26],0
same,B. signalgrass plant response rating,[8]; [20],0
same,B. signalgrass plant response rating,[8]; [21],0
same,"Plant response rating, B. signalgrass",[8]; [22],0
same,B. signalgrass plant response rating,[8]; [23],0
same,"B. signalgrass plant response rating (0 to 10 scale, 0 is no effect, 10 is complete control)","[8]; Preemergence, Rate 250 g/ha",0
same,B. signalgrass plant response rating,[8]; [25],2
same,"Plant response rating, B. signalgrass",[8]; [26],0
same,Giant foxtail plant response rating,[9]; [20],0
same,"Plant response rating, Giant foxtail",[9]; [22],7
same,Giant foxtail plant response rating,[9]; [24],4
same,Giant foxtail plant response rating (0 to 10 scale),"[9]; Preemergence, Rate 250 g/ha",10
same,Giant foxtail plant response rating,[9]; [25],10
same,"Plant response rating, Giant foxtail",[9]; [26],4
same,Velvetleaf plant response rating,[10]; [20],0
same,Velvetleaf plant response rating,[10]; [21],0
same,"Plant response rating, Velvetleaf",[10]; [22],2
same,Velvetleaf plant response rating,[10]; [23],0
same,Velvetleaf plant response rating,[10]; [24],0
same,Velvetleaf plant response rating (0 to 10 scale),"[10]; Preemergence, Rate 250 g/ha",0
same,Velvetleaf plant response rating,[10]; [25],2
same,Soybean plant response rating,[11]; [20],1
same,Soybean plant response rating,[11]; [21],1
same,"Plant response rating, Soybean",[11]; [22],4
same,Soybean plant response rating,[11]; [23],0
same,Soybean plant response rating,[11]; [24],0
same,Soybean plant response rating (0 to 10 scale),"[11]; Preemergence, Rate 250 g/ha",0
same,Soybean plant response rating,[11]; [25],0
same,"Plant response rating, Soybean",[11]; [26],2
same,Morningglory plant response rating,[12]; [20],0
same,Morningglory plant response rating,[12]; [21],4
same,"Plant response rating, Morningglory",[12]; [22],10
same,Morningglory plant response rating,[12]; [23],0
same,Morningglory plant response rating,[12]; [24],0
same,Morningglory plant response rating (0 to 10 scale),"[12]; Preemergence, Rate 250 g/ha",0
same,Morningglory plant response rating,[12]; [25],0
same,"Plant response rating, Morningglory",[12]; [26],5
same,"Plant response rating, Barnyardgrass (0 to 10 scale, 0 is no effect, 10 is complete control)",[13]; [27],0
same,"Barnyardgrass plant response rating (0 to 10 scale, 0 is no effect, 10 is complete control)",[13]; [28],0
same,Barnyardgrass plant response rating,[13]; [29],0
same,Barnyardgrass plant response rating,[13]; [30],0
same,Cocklebur plant response rating,[14]; [20],0
same,Cocklebur plant response rating,[14]; [21],0
same,"Plant response rating, Cocklebur",[14]; [22],0
same,Cocklebur plant response rating,[14]; [23],0
same,Cocklebur plant response rating,[14]; [24],0
same,Cocklebur plant response rating (0 to 10 scale),"[14]; Preemergence, Rate 250 g/ha",0
same,Cocklebur plant response rating,[14]; [25],0
same,"Plant response rating, Cocklebur",[14]; [26],0
same,Crabgrass plant response rating,[15]; [20],1
same,Crabgrass plant response rating,[15]; [21],7
same,"Plant response rating, Crabgrass",[15]; [22],10
same,Crabgrass plant response rating,[15]; [23],7
same,Crabgrass plant response rating,[15]; [24],7
same,Crabgrass plant response rating (0 to 10 scale),"[15]; Preemergence, Rate 250 g/ha",10
same,Crabgrass plant response rating,[15]; [25],10
same,"Plant response rating, Crabgrass",[15]; [26],7
same,Nutsedge plant response rating,"[16]; Rate 62 g/ha, scale 0 to 10 (0 no effect, 10 complete control)",0
same,Nutsedge plant response rating,"[16]; Rate 125 g/ha, scale 0 to 10, 0 is no effect, 10 is complete control",0
same,Nutsedge plant response rating (0 to 10 scale),[16]; Rate 250 g/ha,0
same,Nutsedge plant response rating,"[16]; Rate 500 g/ha, scale of 0 to 10 where 0 is no effect and 10 is complete control",0
same,"Plant response rating, S. Flatsedge (0 to 10 scale, 0 is no effect, 10 is complete control)",[17]; [27],0
same,"S. Flatsedge plant response rating (0 to 10 scale, 0 is no effect, 10 is complete control)",[17]; [28],0
same,S. Flatsedge plant response rating,[17]; [29],0
same,S. Flatsedge plant response rating,[17]; [30],0
same,"Plant response rating, Ducksalad (0 to 10 scale, 0 is no effect, 10 is complete control)",[18]; [27],0
same,"Ducksalad plant response rating (0 to 10 scale, 0 is no effect, 10 is complete control)",[18]; [28],0
same,Ducksalad plant response rating,[18]; [29],0
same,Ducksalad plant response rating,[18]; [30],0
same,Sugarbeets plant response rating,[19]; [20],0
same,Sugarbeets plant response rating,[19]; [21],0
same,"Plant response rating, Sugarbeets",[19]; [22],5
same,Sugarbeets plant response rating,[19]; [23],0
same,Sugarbeets plant response rating,[19]; [24],0
same,Sugarbeets plant response rating (0 to 10 scale),"[19]; Preemergence, Rate 250 g/ha",2
same,Sugarbeets plant response rating,[19]; [25],2
same,"Plant response rating, Sugarbeets",[19]; [26],4
